This is an account of results in US11082386B2, “2′-fluoro-6′-methylene carbocyclic nucleosides and methods of treating viral infections” (UNIVERSITY OF GEORGIA RESEARCH FOUNDATION, INC., priority 2009, dated 2021).

Entries after “also recorded” stand apart in the source; their conditions may differ. Read-outs that look alike come from different tables or passages of the source.

Data set [1] concerns HBV rtA181T and rtN236T mutations. The conditions noted are these: cited from earlier work.
For data set [2], the system named is wild-type HBV. Put plainly: intracellular HBV DNA replication assay, wild type. The class given is cell-based, Hepatitis B virus. As for the experimental part:
(§1) In view of the significance of lamivudine- and adefovir-resistant mutations in the clinical application of anti-HBV treatment, the synthesized nucleoside 15/18 was tested against HBV WT as well as lamivudine- and adefovir-resistant mutants.

Data set [3] concerns HBV double mutant rtL180M/rtM204V. The experiment in a line: intracellular HBV DNA replication assay, double mutant. The class given is cell-based, Hepatitis B virus. As for the experimental part: as §1
In data set [4] the test system is entecavir resistant HBV mutant (L180M+M204V+S202G). Put plainly: in vivo study in chimeric mice, entecavir resistant HBV mutant. The settings on record: for viral load down / activity: mice, entecavir resistant HBV mutant (L180M+M204V+S202G); for antiviral activity: preliminary, chimeric mice infected with lamivudine-adeforvir-entecavir triple mutant. As for the experimental part: (§2) The FMCA monophosphate prodrug compound (15P/18P) was also tested in chimeric mice for activity.

The test system of data set [5] is lamivudine-resistant mutants including rtM204V/I±rtL180M. The conditions noted are these: literature reference 50; cited from earlier work.
Data set [6] deals with HBV genotype C entecavir resistant clone (L180M+M204V+S202G). The experiment in a line: anti-HBV activity against entecavir resistant clone in Huh7 cells. The class given is cell-based, Hepatitis B virus. The conditions noted are these: for EC50: Hepatitis B virus, Huh-7; for antiviral potency against the entecavir mutant / IC50: Huh7 cells; for IC50: HBV genotype C entecavir resistant clone. From the text:
(§3) A mono-phosphate prodrug can be useful not only to bypass the rate limiting initial phosphorylation step by the nucleoside kinase, thereby to increase the antiviral potency, but also it may potentially target the liver. Therefore, a phosphoramidite, compound 15P/18P was also synthesized.

For another data set, the system named is HBV mutant rtM204V. Put plainly: intracellular HBV DNA replication assay, rtM204V. The class given is cell-based. The settings on record: Hepatitis B virus. As for the experimental part:
as §1

The subject of data set [7] is HBV adefovir mutant rtN236T. Put plainly: intracellular HBV DNA replication assay, adefovir mutant. The class given is cell-based, Hepatitis B virus. Here is the method:
as §1

Another data set relates to HepG2 cells. The experiment in a line: mitochondrial toxicity by lactic dehydrogenase release. The class given is cell-based. The conditions noted are these: human.
The subject of the next data set is HBV mutant rtL180M. The experiment in a line: intracellular HBV DNA replication assay, rtL180M. The class given is cell-based, Hepatitis B virus. The conditions noted are these: for EC50 / EC90: Hepatitis B virus. As for the experimental part:
as §1

Data set [8] relates to lamivudine-resistant mutants including rtM204V/I±rtL180M. Put plainly: activity against lamivudine-resistant mutants relative to wild type. The class given is cell-based, Hepatitis B virus. As for the experimental part: as §1
For data set [9], the target named is T1, adenosine deaminase from calf thymus (Bos taurus, UniProt P56658).
T1 construct: adenosine deaminase from calf thymus; from tissue; host or cells: calf thymus
T1 sequence (P56658 1-363): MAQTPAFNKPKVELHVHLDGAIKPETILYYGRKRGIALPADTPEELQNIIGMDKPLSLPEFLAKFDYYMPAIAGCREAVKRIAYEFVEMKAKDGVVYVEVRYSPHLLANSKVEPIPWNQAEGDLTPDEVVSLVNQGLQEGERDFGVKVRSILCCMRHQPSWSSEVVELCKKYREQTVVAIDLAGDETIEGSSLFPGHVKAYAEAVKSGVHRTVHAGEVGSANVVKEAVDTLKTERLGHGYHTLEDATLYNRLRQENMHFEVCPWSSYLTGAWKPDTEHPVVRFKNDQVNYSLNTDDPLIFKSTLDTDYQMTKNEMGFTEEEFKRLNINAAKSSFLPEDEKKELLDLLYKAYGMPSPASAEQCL
Put plainly: deamination study with adenosine deaminase. The class given is in vitro ADME.

Another data set concerns HBV mutant rtM204I. Put plainly: intracellular HBV DNA replication assay, rtM204I. The class given is cell-based. The conditions noted are these: Hepatitis B virus. As for the experimental part:
as §1

The test system of a further data set is HBV. Put plainly: standard HBV assay (HBV Assay Results table). The class given is cell-based, Hepatitis B virus. Here is the method:
Drug susceptibility assays were performed as previously described. […]

A further data set deals with WT HBV. The experiment in a line: anti-HBV activity against wild type in Huh7 cells (Table 2). The class given is cell-based, Hepatitis B virus.
Text: as §3

Data set [10] deals with wild-type HBV. Put plainly: in vivo study in chimeric mice, wild-type HBV. Here is the method: as §2
Data set [11] in a line: cytotoxicity / cellular toxicity (CC50). The conditions noted are these: Table 2. As for the experimental part:
Drug susceptibility assays were performed as previously described. Cytotoxicity assays in PBM, CEM and Vero cells were conducted as previously described. […] These compounds were tested in a standard HBV assay in the laboratory of Dr. Brent Korba.

Setting [12] is: rtN236T, compared with adefovir.

The EC90 is the concentration at which the effect reaches the 90% level. A word on the EC50: it is the concentration that produces a half-maximal response. Consider `Nc1ncnc2c1ncn2CCOCP(=O)(O)O` [adefovir, reference compound], for which the “increase in median effective concentration” value in data set [1] is “two-fold to nine-fold”. Moreover, the EC90 came to 7.1 µM in the data set on wild-type HBV [2] (HBV-WT, inhibition of 90% of HBV DNA, read-out: EC90) and 8.5 µM in [3] (double mutant rtL180M/rtM204V, read-out: EC90). For the same compound, the EC50 in data set [3] (double mutant rtL180M/rtM204V, read-out: EC50) turned out to be 2.2 µM.
For `C=C1[C@H](CO)[C@@H](O)C[C@@H]1n1cnc2c(=O)[nH]c(N)nc21` [entecavir], the “viral load down / activity” value in [4] (listed as ETV) was “inactive; also recorded: not active”. Also, the “antiviral activity” value in data set [4] is given as “did not”. Moreover, the “fold loss of activity against lamivudine-resistant mutants” value in data set [5] is reported as 8 fold. Besides, in data set [6], the EC50 amounted to 1.2 µM.
For the compound `C=C1[C@@H](n2cnc3c(N)ncnc32)[C@@H](F)[C@H](O)[C@H]1CO` [Compound 15/18, (+)-(1R,2R,3R,5R)-3-(6-amino-9H-9-purinyl)-2-fluoro-5-(hydroxymethyl)-4-methylenecyclopentan-1-ol], the EC50 in the data set on HBV mutant rtM204V worked out at 1.8 µM; in data set [7] (Hepatitis B virus), 1.7 µM; in [6], 0.67 µM; in the data set with HBV mutant rtL180M it was 2.1 µM; with wild-type HBV [2] (Hepatitis B virus, HBV-WT, inhibition of 50% of HBV DNA), 1.5 µM; with HBV mutant rtM204I it was 1 µM. In [3] (Hepatitis B virus), this compound had an EC50 of 2.2 µM. The EC90 in data set [7] (Hepatitis B virus) stood at 4.6 µM; in the data set on HBV mutant rtL180M, 5.1 µM; with wild-type HBV [2] (Hepatitis B virus) it was 4.5 µM; in data set [3] (Hepatitis B virus) it was 5.5 µM. Also, in data set [7] (setting [12]), the “fold enhanced EC50 value” was 4.5 fold. Moreover, the “fold more favorable EC90 value” in data set [7] (setting [12]) is 7.8 fold. The “antiviral potency against the entecavir mutant” value in data set [6] is “still maintain the antiviral potency”. In the data set on HepG2 cells, the “mitochondrial toxicity (lactic dehydrogenase release)” value is “did not exhibit any significant toxicity up to 100 μM”. In addition, in the data set with HBV mutant rtL180M (rtL180M), the “fold increased antiviral activity in EC90 versus lamivudine” value was 4.3 fold. Also, the “cross-resistance to tested lamivudine-resistant mutants” value in data set [8] is listed as “not cross-resistant”. In [8] (rtM204V/I±rtL180M versus wild type), the “fold increase against lamivudine-resistant mutants” value is on record as 1.0-1.2 fold. In addition, the “stability against adenosine deaminase” value in [9] is on record as “completely stable”. For the same compound, in the data set on wild-type HBV [2] (wild-type HBV), the “fold more potent than adefovir in EC90” value worked out at 1.5 fold. For the same compound, the “fold less potent than lamivudine” value with wild-type HBV [2] (wild-type HBV, EC50) worked out at 7 fold.
Regarding `Nc1ccn([C@@H]2CS[C@H](CO)O2)c(=O)n1` [lamivudine, reference compound], the half-maximal effective concentration (EC50) in the data set on HBV (Hepatitis B virus, read-out: Control: 3TC EC50) is 2420 µM. Also, in the data set on HepG2 cells, the “mitochondrial toxicity (lactic dehydrogenase release)” value was “did not exhibit any significant toxicity up to 100 μM”. In the data set with HBV mutant rtL180M, this compound yielded an EC50 of 1.5 µM and a 90% effect concentration (EC90) of 22 µM.
What is called IC50 is the concentration needed to halve the response being measured. A lower IC50 goes with greater potency. As for `C=C1C(COP(=O)(N[C@@H](C)C(=O)OC)Oc2ccccc2)C(O)C(F)C1n1cnc2c(N)ncnc21` (stereo partly shown) [Compound 15P/18P], the “times more active than the compound where R1 and R1a are H” value in the data set with HBV (prodrug versus parent 15/18) is given as “more than 10 times”. For the same compound, in [4], the “viral load down / activity” value is 1 log and the “antiviral activity” value is on record as “exhibited antiviral activity”. In [6], the IC50 was determined as 0.05 µM and the “antiviral potency against the entecavir mutant” value is “still maintain the antiviral potency”. Also, in the data set with WT HBV, the “fold enhancement of anti-HBV potency in EC50 versus parent 15/18” value was 7 fold and the “fold enhancement of anti-HBV potency in EC90 versus parent 15/18” value is 13 fold. This compound also came in with a viral load down in the data set on wild-type HBV [10] of 2 log. For the same compound, in data set [11], the “cellular toxicity in comparison to parent 15/18” value is listed as “without significant increase of cellular toxicity”.
In data set [6], “(+)-(1R,2R,3R,5R)-3-(6-amino-9H-9-purinyl)-2-fluoro-5-(hydroxymethyl)-4-methylenecyclopentan-1-ol [Compound 15/18]” displayed an IC50 of 0.054 µM.
